≈ marks a conversion by molar mass, not a printed value. One block for each molecule: values may come before it.
Experiments:
[1] = biological target: T1, Prostaglandin G/H synthase 2 (Homo sapiens) (UniProt P35354); experiment: Inhibition of COX2 (unknown origin) at […] using arachidonic acid as substrate preincubated for 15 mins followed by arachidonic acid addition measured after 2 mins by ELISA relative to control
T1 sequence (whole entry): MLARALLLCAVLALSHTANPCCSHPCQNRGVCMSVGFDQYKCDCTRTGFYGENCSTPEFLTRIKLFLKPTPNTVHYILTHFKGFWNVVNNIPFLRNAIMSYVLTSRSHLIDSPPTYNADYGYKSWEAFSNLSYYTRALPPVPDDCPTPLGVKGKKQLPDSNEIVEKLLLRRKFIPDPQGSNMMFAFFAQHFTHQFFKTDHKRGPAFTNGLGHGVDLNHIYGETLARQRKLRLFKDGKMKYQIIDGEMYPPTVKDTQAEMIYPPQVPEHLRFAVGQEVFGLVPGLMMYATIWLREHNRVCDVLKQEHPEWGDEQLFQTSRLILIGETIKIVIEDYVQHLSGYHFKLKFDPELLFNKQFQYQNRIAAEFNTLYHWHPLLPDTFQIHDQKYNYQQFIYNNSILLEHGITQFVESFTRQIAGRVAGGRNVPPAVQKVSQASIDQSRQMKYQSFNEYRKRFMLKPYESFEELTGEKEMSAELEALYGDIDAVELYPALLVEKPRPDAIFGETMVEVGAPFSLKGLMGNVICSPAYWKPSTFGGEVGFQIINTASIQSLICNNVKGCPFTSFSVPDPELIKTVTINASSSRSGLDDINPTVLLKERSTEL

[2] = biological target: T2, Polyunsaturated fatty acid 5-lipoxygenase (Homo sapiens) (UniProt P09917); experiment: Inhibition of 5-lox (unknown origin) at 20 uM relative to control
T2 sequence (whole entry): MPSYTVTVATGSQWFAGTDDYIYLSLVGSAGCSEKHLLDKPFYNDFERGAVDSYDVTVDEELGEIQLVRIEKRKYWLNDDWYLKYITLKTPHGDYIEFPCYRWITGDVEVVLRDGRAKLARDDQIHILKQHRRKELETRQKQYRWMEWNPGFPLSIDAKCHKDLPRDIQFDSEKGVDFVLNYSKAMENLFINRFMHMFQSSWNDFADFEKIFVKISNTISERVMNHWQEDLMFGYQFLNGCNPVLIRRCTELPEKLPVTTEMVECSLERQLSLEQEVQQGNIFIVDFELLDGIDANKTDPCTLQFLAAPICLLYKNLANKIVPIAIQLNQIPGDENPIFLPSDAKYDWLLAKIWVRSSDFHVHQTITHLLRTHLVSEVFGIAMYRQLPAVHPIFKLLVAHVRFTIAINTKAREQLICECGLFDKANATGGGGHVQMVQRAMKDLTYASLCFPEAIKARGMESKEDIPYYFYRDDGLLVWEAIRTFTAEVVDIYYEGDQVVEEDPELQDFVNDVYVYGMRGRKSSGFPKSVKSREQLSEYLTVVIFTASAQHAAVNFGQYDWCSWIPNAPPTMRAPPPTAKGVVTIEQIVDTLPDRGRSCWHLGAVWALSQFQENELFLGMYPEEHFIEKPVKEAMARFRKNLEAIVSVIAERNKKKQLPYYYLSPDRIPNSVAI

THP-1 = experiment: Antiinflammatory activity against human THP1 cells assessed as inhibition of LPS induced TNF-alpha at 40 uM preincubated for 30 mins followed by LPS stimulation measured after 24 hrs by ELISA relative to control; type: functional
RAW264.7 [3] = experiment: Antiinflammatory activity in mouse RAW264.7 cells assessed as inhibition of LPS-induced nitric oxide production at […] after 24 hrs by Griess reagent based assay relative to control; type: functional; design: dose or concentration left out as unconfirmed; conditions: RAW264.7, 24 h
[4] = Inhibition of soybean 15-LOX using linoleic acid as substrate preincubated for 5 mins followed by substrate addition and measured after 20 mins by spectrophotometric analysis; design: species or system Glycine max
RAW264.7 [5] = experiment: Antiinflammatory activity in mouse RAW264.7 cells assessed as inhibition of LPS-induced nitric oxide production at 10 uM preincubated for 2 hrs followed by LPS stimulation measured after 24 hrs by Griess reagent based assay relative to control; type: functional
RAW264.7 [6] = experiment: Antiinflammatory activity in mouse RAW264.7 cells assessed as inhibition of LPS-induced nitric oxide production at 50 uM preincubated for 2 hrs followed by LPS stimulation measured after 24 hrs by Griess reagent based assay relative to control; type: functional
RAW264.7 [7] = experiment: Antiinflammatory activity in mouse RAW264.7 cells assessed as inhibition of LPS-induced nitric oxide production at 20 uM preincubated for 2 hrs followed by LPS stimulation measured after 24 hrs by Griess reagent based assay relative to control; type: functional
[8] = biological target: T3, Prostaglandin G/H synthase 2 (Ovis aries, UniProt P79208); experiment: Inhibition of ovine COX2 using arachidonic acid as substrate by enzyme immunoassay
T3 sequence (P79208 whole entry): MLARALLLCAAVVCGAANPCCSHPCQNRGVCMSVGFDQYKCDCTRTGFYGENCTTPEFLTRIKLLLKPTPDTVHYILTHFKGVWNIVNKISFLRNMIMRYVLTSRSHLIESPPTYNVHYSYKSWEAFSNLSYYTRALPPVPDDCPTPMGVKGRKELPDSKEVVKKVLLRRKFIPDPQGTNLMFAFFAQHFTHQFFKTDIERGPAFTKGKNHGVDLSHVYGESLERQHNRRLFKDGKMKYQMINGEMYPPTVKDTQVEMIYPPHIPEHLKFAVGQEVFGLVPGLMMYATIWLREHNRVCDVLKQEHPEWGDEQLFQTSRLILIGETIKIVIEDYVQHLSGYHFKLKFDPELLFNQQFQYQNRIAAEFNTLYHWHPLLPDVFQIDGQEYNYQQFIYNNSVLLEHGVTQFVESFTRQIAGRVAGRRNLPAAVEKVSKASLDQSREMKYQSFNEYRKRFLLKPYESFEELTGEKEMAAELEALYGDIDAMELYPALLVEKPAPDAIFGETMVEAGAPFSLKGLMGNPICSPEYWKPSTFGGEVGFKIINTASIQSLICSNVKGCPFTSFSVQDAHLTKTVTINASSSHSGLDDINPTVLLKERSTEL

RAW264.7 [9] = experiment: Antiinflammatory activity against mouse RAW264.7 cells assessed as inhibition of LPS induced COX2 at 30 uM preincubated for 1 hr followed by LPS stimulation measured after 18 hrs relative to control; type: functional
RAW264.7 [10] = experiment: Antiinflammatory activity against mouse RAW264.7 cells assessed as inhibition of LPS induced iNOS at 30 uM preincubated for 1 hr followed by LPS stimulation measured after 18 hrs relative to control; type: functional
BV-2 = experiment: Antiinflammatory activity in mouse BV2 cells assessed as inhibition of LPS-induced nitric oxide production; type: functional, cell-based
RAW264.7 [11] = experiment: Antiinflammatory activity in mouse RAW264.7 cells assessed as inhibition of LPS-induced nitric oxide production; type: functional, cell-based
[12] = biological target: T3, Prostaglandin G/H synthase 2; experiment: Inhibition of ovine COX2 by EIA
[13] = Inhibition of ovine 5-lox by EIA; design: species or system Ovis aries
RAW264.7 [14] = experiment: Antiinflammatory activity in mouse RAW264.7 cells assessed as inhibition of nitric oxide production; type: functional, cell-based

SMILES: O=C(/C=C/CCc1ccc(O)cc1)CCc1ccc(O)cc1
inhibition [1]: 98.4%

SMILES: COc1c(O)cc2c(=O)oc3c(OC)c(O[C@@H]4O[C@H](CO)[C@@H](O)[C@H](O)[C@H]4O)cc4c(=O)oc1c2c34
inhibition at 40 µM (THP-1): 47.8%

SMILES: O=C(OC1Cc2c(O)cc(O)cc2OC1c1cc(O)c(O)c(O)c1)c1cc(O)c(O)c(O)c1 (configuration not stated)
inhibition at 40 µM (THP-1): 39.1%

SMILES: O=c1c2cc(O)c(O)cc2oc2cc(O)cc(O)c12
inhibition (RAW264.7 [3]): 70.8% | IC50 [4]: 0.04461 µg/mL (≈ 0.171 µM)

SMILES: COc1cc(/C=C/c2ccccc2)c(C(=O)O)c(O)c1CC=C(C)C
inhibition at 10 µM (RAW264.7 [5]): 21.2% | inhibition at 50 µM (RAW264.7 [6]): 40.9% | inhibition at 20 µM (RAW264.7 [7]): 30.6%

SMILES: CC1(C)CC[C@]2(C(=O)O[C@@H]3O[C@H](CO)[C@@H](O)[C@H](O)[C@H]3O)CC[C@]3(C)C(=CC[C@@H]4[C@@]5(C)CC[C@H](O[C@@H]6OC[C@@H](O)[C@H](O)[C@H]6O[C@@H]6O[C@H](CO)[C@@H](O)[C@H](O)[C@H]6O)C(C)(C)[C@@H]5CC[C@]43C)[C@@H]2C1
inhibition at 30 µM (RAW264.7 [9]): 54.6% | inhibition at 30 µM (RAW264.7 [10]): 88%

More lines, now with the values ahead:

inhibition [2]: 28.5%
SMILES: COc1cc(C2OCC3C(c4cc(OC)c(O)c(OC)c4)OCC23)cc(OC)c1O (configuration not stated)

IC50 [8]: 2.8 µM
SMILES: CCOC(=O)[C@H](CO)NC(=O)c1cccc(O)c1O

IC50 (BV-2): 4.97 µM | IC50 (RAW264.7 [11]): 5.04 µM
SMILES: C=C1[C@@H]([C@@]2(C)[C@@H](O)CC(=O)C(C)(C)[C@@H]2[C@@H](O)C(=O)OC)CC[C@@]2(C)[C@H](C3=C[C@@H](O)CC3=O)CC(=O)C[C@]12O

IC50 [12]: 29.9 µM | IC50 [13]: 2.2 µM
SMILES: CC(C)=CCC/C(C)=C/Cc1c(O)cc(O)c(C(=O)C(C)C)c1O

IC50 (RAW264.7 [14]): 51.9 µM
SMILES: COc1cc2c(cc1C)C1=C(C)C(=O)OC1C(O)C2C (configuration not stated)

Source: ChEMBL document CHEMBL4406802, “Human disorders associated with inflammation and the evolving role of natural products to overcome” (Eur J Med Chem, 2019)
